Results as given in patent publication US7109229B2, “Methods and compounds for treating proliferative diseases” (Eli Lilly and Company, priority 2000, dated 2006).
Structures can show the parent of a compound that is named as a salt. Marks after values point to notes of the source that are not given here.

What was measured:
[1] = molecular target: T1, Cyclin D1-cdk4 (Homo sapiens, UniProt P11802); test: Cyclin D1-cdk4 kinase activity with the ING peptide as substrate; type: biochemical
Method: The compounds of Formula I were tested using in vitro. An important in vitro test is the ability of the compound to inhibit the activity of the CDK4 enzyme. This test is done using Rb^ING and/or Rb^21 substrates as described in the literature (KONSTANTINIDIS, A. K., et al, J. Biol. Chem. 273, 26506–26515 (1998)). The test yields the micromolar concentration of the test compound, which produces a 50% inhibition of the CDK4 enzyme activity.
Assay of Cyclin D1-cdk4 Kinase Activity with the ING Peptide as Substrate.
The cyclin D1-cdk4 kinase activity of a compound was assayed by preparing a 100 ul reaction at the following concentrations: 35 mM Hepes pH 7.0, 10 mM MgCl2, 300 uM ATP, 200 uM ING peptide, 1.0 uCi of γ-^33P-ATP, 4.34 ug of cyclin D-cdk4 enzyme, 4% DMSO, and various concentrations of inhibitor. The reaction was incubated at room temperature (about 74° F.) for 60 minutes, and then terminated by the addition of 100 ul of 10% phosphoric acid. Next, the reaction was filtered through a Millipore Multiscreen-PH Plate—Catalog number MAPH NOB 10, and the plate was washed 2 times with 320 ul each of 0.5% phosphoric acid, followed by the addition of 100 ul of scintillation fluid and quantitation on a Packard Instruments, Top Count, scintillation counter.

[2] = test system: Ser-780 pRb phosphorylation in HCT116 cells; test: Inhibition of Rb phosphorylation assay; type: cell-based, human; conditions: HCT116 cells after 24 h incubation period
From the text: (§1) A major in vitro test is the cell growth inhibition test. In this test, the concentration of the test compound that causes a 50% inhibition of cell growth for a selected cell line. A low value is desirable in this test. This test is done according to a standard protocol (SCHULTZ, R. M., et al, Oncology Res. 5, 223–228 (1993)). Another major in vitro test is the G1 arrest test. This test measures the proportion of the cells that are arrested in the G1 phase relative to control. A result above 1.5 is desirable in this test. […] The results are expressed as a percentage inhibition of ser-780 pRb phosphorylation in drug treated cells versus control cells treated with DMSO alone. […]
Human HCT116 colon carcinoma cell line was purchased from American Tissue Culture Collection (Rockville, Md.) and maintained as monolayer in RPMI-1640 with L-Glutamine and 25 mM HEPES supplemented with 10% fetal bovine serum in a 37° C. incubator with a 10% CO2 atmosphere. […] Protein concentration was determined by the Bio-Rad DC protein assay (Bio-Rad, Hercules, Calif.). […]

[3] = molecular target: T1, Cyclin D1-cdk4; test: Cyclin D1-cdk4 kinase activity with the Rb21 protein as substrate; type: biochemical
Method: The compounds of Formula I were tested using in vitro. An important in vitro test is the ability of the compound to inhibit the activity of the CDK4 enzyme. This test is done using Rb^ING and/or Rb^21 substrates as described in the literature ([…]., et al, J. Biol. Chem. 273, 26506-26515 (1998)). […] The reaction was incubated at room temperature (about 74° F.) for 60 minutes, and then terminated by the addition of 100 ul of 25% trichloroacetic acid. Next, the reaction was filtered through a Millipore Multiscreen-FC Plate-Catalog number MAFC NOB 10, and the plate was washed 2 times with 320 ul each of 10% trichloroacetic acid, followed by the addition of 100 ul of scintillation fluid and quantitation on a Packard Instruments, Top Count, scintillation counter.

[4] = test system: HCT116 cells; test: Cell growth inhibition assay (MTT), HCT116; type: cell-based; conditions: Homo sapiens, HCT-116, 72 h drug exposure
From the text: as §1

[5] = test system: HCT116 cells; test: G1 arrest test, cell cycle analysis using flow cytometry; type: cell-based, human; conditions: HCT116 cells after 24 h incubation period; at IC50 conc.
From the text: as §1

[6] = test system: H460 cells; test: Cell growth inhibition assay (MTT), H460; type: cell-based; conditions: Homo sapiens, NCI-H460, 72 h drug exposure
From the text: as §1

[7] = test system: protein kinase A; conditions: background, literature; cited from earlier work
[8] = test system: protein kinase C; conditions: background, literature; cited from earlier work
[9] = Table 1, ING peptide substrate, read-out: RbING IC50
[10] = Table 1, Rb21 protein substrate, read-out: Rb21 IC50

T1 sequence (P11802 whole entry): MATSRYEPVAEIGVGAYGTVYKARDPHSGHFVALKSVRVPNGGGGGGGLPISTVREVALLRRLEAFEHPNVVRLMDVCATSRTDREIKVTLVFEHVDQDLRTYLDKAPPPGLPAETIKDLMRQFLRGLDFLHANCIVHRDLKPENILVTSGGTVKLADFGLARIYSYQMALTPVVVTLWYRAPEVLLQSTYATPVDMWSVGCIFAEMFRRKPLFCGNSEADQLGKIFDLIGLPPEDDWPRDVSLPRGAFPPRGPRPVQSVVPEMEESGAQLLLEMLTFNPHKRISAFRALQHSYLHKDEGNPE
T1 sequence (P24385 whole entry partner): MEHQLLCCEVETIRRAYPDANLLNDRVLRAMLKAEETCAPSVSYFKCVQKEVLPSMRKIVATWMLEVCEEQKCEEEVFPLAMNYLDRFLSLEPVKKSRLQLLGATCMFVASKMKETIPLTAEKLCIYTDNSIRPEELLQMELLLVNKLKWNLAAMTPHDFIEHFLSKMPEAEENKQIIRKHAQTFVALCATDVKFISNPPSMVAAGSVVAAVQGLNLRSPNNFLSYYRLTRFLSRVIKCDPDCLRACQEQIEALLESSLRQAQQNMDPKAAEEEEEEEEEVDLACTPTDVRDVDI

| SMILES | IC50 [1, 9] [µM] | IC50 [3, 10] [µM] | also measured |
| --- | --- | --- | --- |
| COc1ccc2c(c1)[nH]c1c3ccc4ccn(C)c4c3c3c(c21)C(=O)NC3=O [Example 1, 11-Methoxy-5-methyl-5H,13H-indolo[6,7-a]pyrrolo[3,4-c]carbazole-6,8-dione] | 0.0431 | 0.00165 | IC50 ([1]; Table 2, Rb^ING substrate, read-out: CDK4 Inhibition (IC50/μM) Rb^ING): 0.04 µM; % Inhibtion of Rb Phosphorylation in vitro @3XIC50 ([2]; compound at 3XIC50): 97%; % Inhibtion of Rb Phosphorylation in vitro @IC50 ([2]; compound at IC50): 90%; IC50 ([3]; Table 2, Rb^21 substrate, read-out: CDK4 Inhibition (IC50/μM) Rb^21): 0.001 µM; IC50 [4]: 1.8 µM; G1 Arrest; x vs control [5]: 2.6^c x vs control; IC50 [6]: 1.09 µM |
| Cn1ccc2ccc3c4[nH]c5ccccc5c4c4c(c3c21)C(=O)NC4=O [Example 2, 5-Methyl-7H,13H-indolo[6,7-a]-pyrrolo[3,4-c]-carbazole-6,8-dione] |  | 0.0215 |  |
| COc1ccc2c3c4c(c5c(ccc6ccn(C)c65)c3n(CCCO)c2c1)C(=O)NC4=O [Example 11, 13-(3-Hydroxy-propyl)-11-methoxy-5-methyl-5H,13H-indolo[6,7-a]pyrrolo[3,4-c]carbazole-6,8-dione] |  | 0.0116 |  |
| COc1ccc2c3c4c(c5c(ccc6ccn(C)c65)c3n(CCN3CCC(C(N)=O)CC3)c2c1)C(=O)NC4=O [Example 36, 11-Methoxy-5-methyl-13-(1-ethyl-piperidine-4-carboxylic acid amide)-7H-indolo[6,7-a]pyrrolo[3,4-c]carbazole-6,8-dione] | 0.0824 | 0.0357 |  |
| COc1ccc2c3c4c(c5c(ccc6ccn(C)c65)c3n(CCCNCCN(C)C)c2c1)C(=O)NC4=O [Example 55, 11-Methoxy-5-methyl-13-(N,N-dimethyl-N′-propyl-ethane-1,2-diamine)-7H-indolo[6,7-a]pyrrolo[3,4-c]carbazole-6,8-dione] | 0.042 | 0.0246 |  |
| COc1ccc2c3c4c(c5c(ccc6ccn(C)c65)c3n(CCCNCCN(C)C)c2c1)C(=O)NC4=O [Example 56, 11-Methoxy-5-methyl-13-(N,N-dimethyl-N′-propyl-ethane-1,2-diamine)-7H-indolo[6,7-a]pyrrolo[3,4-c]carbazole-6,8-dione dihydrochloride] | 0.0992 | 0.0177 |  |
| COC(=O)[C@H](C)NCCCn1c2cc(OC)ccc2c2c3c(c4c(ccc5ccn(C)c54)c21)C(=O)NC3=O [Example 59, (S)-(+)-11-Methoxy-5-methyl-13-(2-propylamino-propionic acid methyl ester)-7H-indolo[6,7-a]pyrrolo[3,4-c]carbazole-6,8-dione] | 0.12 | 0.0451 |  |
| CN1CCN(CCc2cccc3c2[nH]c2c4ccc5ccn(C)c5c4c4c(c32)C(=O)NC4=O)CC1 [Example 68, 5-Methyl-12-(1-ethyl-4-methyl-piperazine)-7H,13H-indolo[6,7-a]pyrrolo[3,4-c]carbazole-6,8-dione] | 0.0226 | 0.0109 |  |
| CN1CCN(CCCc2cccc3c2[nH]c2c4ccc5ccn(C)c5c4c4c(c32)C(=O)NC4=O)CC1 [Example 79, 12-(1-Methyl-4-propyl-piperazine)-5-methyl-7H,13H-indolo[6,7-a]pyrrolo[3,4-c]carbazole-6,8-dione] | 0.0763 | 0.0347 |  |
| Cn1ccc2ccc3c4[nH]c5c(CCN6CCCCC6)cccc5c4c4c(c3c21)C(=O)NC4=O [Example 83, 5-Methyl-12-(2-ethylpiperidine)-7H,13H-indolo[6,7-a]pyrrolo[3,4-c]carbazole-6,8-dione] | 0.0782 | 0.0109 |  |
| Cc1ccc2c(c1)[nH]c1c3ccc4ccn(C)c4c3c3c(c21)C(=O)NC3=O [Example 92, 11-Methyl-5-methyl-7H,13H-indolo[6,7-a]pyrrolo[3,4-c]6,8-dione] |  |  | melting point: 170 °C (dec.) |
| Cn1ccc2ccc3c4[nH]c5ccc(C(F)(F)F)cc5c4c4c(c3c21)C(=O)NC4=O [Example 94, 10-Trifluoromethyl-5-methyl-7H,13H-indolo[6,7-a]pyrrolo[3,4-c]6,8-dione] |  |  | melting point: 100 to 110 °C (dec.) |
| CN1CC[C@H](c2c(O)cc(O)c3c(=O)cc(-c4ccccc4Cl)oc23)[C@H](O)C1 [Flavopiridol] |  |  | concentration at which protein kinase A is inhibited [7]: ≥ 10 μM/L; concentration at which protein kinase C is inhibited [8]: ≥ 10 μM/L |
